Where two headings read alike, the source gives them in different places.
Key:
[1] = molecular target: extended human kinome (kinase-like proteins) (Homo sapiens, UniProt Q16875); assay: Whole cell quantitative proteomics: extended kinome hits; details: Accession Q16875
[2] = molecular target: protein kinases (human kinome) (Homo sapiens, UniProt Q9HBH9); assay type: cell-based
[3] = molecular target: protein kinases (human kinome) (Homo sapiens, UniProt P41240); assay type: cell-based; details: for logFC of CSK: Accession P41240; for logFC CSK: CSK (P41240), down
[4] = molecular target: protein kinases (human kinome) (Homo sapiens, UniProt P45984); assay type: cell-based; details: MAPK9 P45984-1
protein kinases (human kinome) (Homo sapiens, UniProt P45984), sequence (P45984 whole entry): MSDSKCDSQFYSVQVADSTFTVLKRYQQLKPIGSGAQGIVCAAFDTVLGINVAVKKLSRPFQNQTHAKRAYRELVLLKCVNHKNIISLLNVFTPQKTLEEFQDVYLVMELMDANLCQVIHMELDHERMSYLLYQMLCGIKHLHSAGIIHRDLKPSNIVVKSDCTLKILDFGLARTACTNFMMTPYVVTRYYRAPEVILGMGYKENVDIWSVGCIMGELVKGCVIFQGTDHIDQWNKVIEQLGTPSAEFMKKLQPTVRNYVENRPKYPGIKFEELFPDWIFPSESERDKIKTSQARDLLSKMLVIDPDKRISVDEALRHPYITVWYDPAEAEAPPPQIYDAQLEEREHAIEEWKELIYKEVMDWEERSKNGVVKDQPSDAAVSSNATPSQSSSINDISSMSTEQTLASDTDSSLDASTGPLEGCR

protein kinases (human kinome) (Homo sapiens, UniProt P41240), sequence (P41240 whole entry): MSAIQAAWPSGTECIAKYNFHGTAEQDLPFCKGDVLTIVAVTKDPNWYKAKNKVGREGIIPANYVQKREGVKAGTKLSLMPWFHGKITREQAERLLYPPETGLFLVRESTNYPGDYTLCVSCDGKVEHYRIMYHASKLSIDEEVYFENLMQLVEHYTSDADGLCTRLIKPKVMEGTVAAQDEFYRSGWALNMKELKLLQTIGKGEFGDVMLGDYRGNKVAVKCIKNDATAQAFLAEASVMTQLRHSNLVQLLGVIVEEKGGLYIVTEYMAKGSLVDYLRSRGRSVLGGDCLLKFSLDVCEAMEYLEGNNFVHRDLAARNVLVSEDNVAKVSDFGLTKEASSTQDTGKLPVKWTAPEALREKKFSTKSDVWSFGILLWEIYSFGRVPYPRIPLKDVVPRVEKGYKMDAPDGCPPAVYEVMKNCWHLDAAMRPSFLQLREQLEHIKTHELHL
protein kinases (human kinome) (Homo sapiens, UniProt Q9HBH9), sequence (Q9HBH9 whole entry): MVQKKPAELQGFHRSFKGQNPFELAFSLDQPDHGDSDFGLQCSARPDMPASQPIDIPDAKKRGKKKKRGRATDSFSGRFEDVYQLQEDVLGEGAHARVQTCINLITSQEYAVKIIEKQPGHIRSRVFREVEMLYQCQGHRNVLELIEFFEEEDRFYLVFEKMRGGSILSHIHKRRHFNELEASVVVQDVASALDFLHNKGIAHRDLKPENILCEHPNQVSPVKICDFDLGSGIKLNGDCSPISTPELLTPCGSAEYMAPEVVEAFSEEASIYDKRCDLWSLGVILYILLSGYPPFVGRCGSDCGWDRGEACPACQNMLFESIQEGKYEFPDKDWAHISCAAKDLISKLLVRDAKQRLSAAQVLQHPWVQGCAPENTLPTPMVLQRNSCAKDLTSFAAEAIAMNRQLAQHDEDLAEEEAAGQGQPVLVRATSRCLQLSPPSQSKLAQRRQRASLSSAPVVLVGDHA
extended human kinome (kinase-like proteins), sequence (Q16875 whole entry): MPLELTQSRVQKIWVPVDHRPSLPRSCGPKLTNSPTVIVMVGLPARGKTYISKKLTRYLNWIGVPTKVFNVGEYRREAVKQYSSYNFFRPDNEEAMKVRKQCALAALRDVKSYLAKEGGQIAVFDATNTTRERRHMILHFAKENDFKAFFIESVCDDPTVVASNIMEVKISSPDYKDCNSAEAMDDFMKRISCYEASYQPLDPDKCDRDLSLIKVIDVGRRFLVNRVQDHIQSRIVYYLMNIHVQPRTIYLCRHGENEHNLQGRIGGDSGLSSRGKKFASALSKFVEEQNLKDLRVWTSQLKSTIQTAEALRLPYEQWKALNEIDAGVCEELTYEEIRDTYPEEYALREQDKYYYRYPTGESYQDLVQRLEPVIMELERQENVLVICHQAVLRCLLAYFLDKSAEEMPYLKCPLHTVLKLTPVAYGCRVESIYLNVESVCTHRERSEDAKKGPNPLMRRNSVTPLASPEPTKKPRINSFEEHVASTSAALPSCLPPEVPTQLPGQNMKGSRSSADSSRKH

Row | Compound | logFC PFKFB3 ([1]; experiment wp045) | logFC MKNK2 (Q9HBH9-1) ([2]; Experiment wp045, direction down) | logFC ([2]; MKNK2 (Q9HBH9-1), experiment wp045) | logFC of CSK ([3]; experiment wp045) | logFC CSK ([3]; experiment wp045) | logFC ([4]; experiment wp045) | logFC MAPK9 ([4]; experiment wp045) | logFC PFKFB3 ([1]; experiment wp168) | logFC of CSK ([3]; experiment wp168) | logFC CSK ([3]; experiment wp168) | logFC ([4]; experiment wp168) | logFC MAPK9 ([4]; experiment wp168)
1 | Cc1ccc(NC(=O)c2cccc(C(F)(F)F)c2)cc1N1Cc2cnc(Nc3ccc(N4CCN(CCCCCCOc5cccc6c5C(=O)N(C5CCC(=O)NC5=O)C6=O)CC4)nc3)nc2N(C)C1=O (stereo not drawn) [DB0663] | −0.4221 | −0.4798 | −0.4798 | −1.206 | −1.206 | −0.598 | −0.598 |  |  |  |  | 
2 | Cc1ccc(NC(=O)c2cccc(C(F)(F)F)c2)cc1N1Cc2cnc(Nc3ccc(N4CCN(CCCCC(=O)N[C@H](C(=O)N5C[C@H](O)C[C@H]5C(=O)N[C@@H](C)c5ccc(-c6scnc6C)cc5)C(C)(C)C)CC4)nc3)nc2N(C)C1=O [DB1113] |  |  |  |  |  |  |  | −0.3724 | −1.62 | −1.62 | −1.216 | −1.216

Reference: patent US20240269139A1, “COMPOUNDS FOR TARGETED PROTEIN DEGRADATION OF KINASES” (DANA-FARBER CANCER INSTITUTE, INC., priority 2020, published 2024)
